Assays:
sAPPα [1] = experiment: sAPPα ELISA, NT2 cells stably expressing APP751; format: cell-based, human; details: 24 h
Protocol: (§1) (5). To confirm the effect of THPI-244 on sAPPα levels in a neuronal cell line and by a tertiary assay, we exposed human Neuron-committed Teratocarcinoma cell line (NT2) stably expressing human APP751 to different concentrations of THPI-244 for 24 h and compared with that of Bryostatin, a classical activator of PKC known to stimulate sAPPα release. […] Levels of sAPPα were measured by ELISA using commercially available kit (cat #27734, IBL-America, Minneapolis, Minn., USA). […] Similar biphasic effect of Bryostatin was confirmed for Aβ42 also, measured again in NT2 stable cells by ELISA (cat #KHB3441, Life Technologies, Grand Island, N.Y., USA). Consistent with sAPPα, THPI-244 decreased Aβ42 levels dose-dependently starting from 50 nM (28%, p<0.05) to 2000 nM (64%, p<0.001) (n=4 independent experiments) (FIG. 1.7). Thus THPI-244 increased non-amyloidogenic processing of APP in NT2 cells.

Aβ42 = Aβ42 ELISA, NT2 stable cells; format: cell-based, human
Protocol: as §1

sAPPα [2] = experiment: sAPPα ELISA, fibroblasts derived from AD patients; format: cell-based, human; details: 24 h
Protocol: (1). […] Therefore, we first used fibroblasts derived from AD patients (AG06263C, Coriell Cell repository, supported by NINDS/NIH) and exposed to THPI-244 for 24 h and measured sAPPα release by ELISA as done above for NT2 cells. […] We also confirmed dose-dependent effect of THPI-244 on sAPPα levels in human primary neurons transiently transfected with APP751 with Swedish mutation which is trafficked differently from WT APP and releases more sAPPα. Human neurons were grown on specially coated glass coverslips (cat #GG-18-PDL, NeuVitro, Germany). We could reproducibly achieve nearly 30% transfection efficiency using a nanoparticle based transfection reagent called Neuromag (cat #NM150299, OZ Biosciences, France).

[3] = tested on: soluble APPα, soluble APPβ, Aβ; experiment: APP processing blots after SAHA, NT2 cells; format: cell-based, human
Description: We utilized a commercially available AlphaLISA detection kit to develop an HTS assay for identification of compounds that increase sAPPα production in CHO cells stably expressing APP751 (7WD10 cells) (FIG. 2.1B). There are several cell lines that have been used extensively in Alzheimer's disease research. For example, NT2 cells are highly used in AD basic and drug discovery research because they are derived from a human embryonal carcinoma cell line and they can be differentiated into post-mitotic neuron-like cells that develop functional dendrites and axons resembling primary neurons of the human brain [39]. NT2 cells also synthesize amyloid precursor protein important in Alzheimer's disease. However, the rate of growth of NT2 cells is much slower than rate of growth of 7WD10s cells, which makes them less HTS-amenable. We have analyzed both 7WD10 and NT2 cells for expression of the hallmark proteins of Alzheimer's disease: soluble APPα, soluble APPβ, Arβ, and membrane-bound full length APP (APP-FL). […] Since it was shown that broad HDAC inhibition results in a decrease of AR and an increase of soluble APPα [41] we tested both cell lines for the effect of application of SAHA (suberoylanilide hydroxamic acid or vorinostat), a pan-HDAC inhibitor [42].

[4] = tested on: soluble APPα, soluble APPβ, Aβ; experiment: APP processing blots after SAHA, 7WD10 cells; format: cell-based
Protocol: (§2) Western blot sAPPα release assay. 7WD10 cells were grown in 6-well plates and treated with test compounds and SAHA (vorinostat) at several concentrations in duplicate wells. After 24 h of drug exposure, the conditioned media (CM) was collected, centrifuged to remove cell debris and subjected to SDS-PAGE electrophoresis. sAPPα (6E10, mouse IgG from IBL America ltd) was detected using indicated antibody. To detect APP-FL holoprotein and C-terminal fragments (CTFs, CT15 antibody), the cells were lysed using lysis buffer (1% NP40) with complete protease inhibitor mix (Sigma) supplemented with sodium vanadate and microcystine. Samples were subjected to SDS-PAGE, transferred and immunoblotted with indicated antibodies and detected by enhanced chemiluminescence method. Quantification of Western blot signals was done using ImageJ software.
We utilized a commercially available AlphaLISA detection kit to develop an HTS assay for identification of compounds that increase sAPPα production in CHO cells stably expressing APP751 (7WD10 cells) (FIG. 2.1B). There are several cell lines that have been used extensively in Alzheimer's disease research. […] We have analyzed both 7WD10 and NT2 cells for expression of the hallmark proteins of Alzheimer's disease: soluble APPα, soluble APPβ, Arβ, and membrane-bound full length APP (APP-FL). […]

[5] = tested on: sAPPα released from 7WD10 cells (CHO cells stably expressing APP751); experiment: AlphaLISA sAPPα release assay (pilot HTS); format: cell-based
Protocol: (1). The pilot screen was performed using five 384 well plates. […] FDA approved oncology set was screened at 10 μM final assay concentration, while thiazole derivatives were screened at 5 μM. Seven hits from thiazole derivatives were identified using Ave+3SD rule (45) as a nominal cutoff for hit determination (FIG. 1.1 (bottom)). The hits represented a novel piperazine thiazole chemotype (FIG. 1.2).
Pilot screen of AlphaLISA sAPPα release assay. 8 μL of assay media (DMEM supplemented with 10% FBS and 1× Penicillin/Streptomycin) containing 20,000 cells were added to all wells of the assay plate, except column 1 where only media was added. Plates were incubated for 4 h at 37° C., 5% CO2, 95% RH after which 80 nL of test compounds in DMSO or DMSO alone were added to respective wells using a pin tool device (VP Scientific, San Diego). After 24 h of incubation at 37° C., 5% CO2, 95% RH, sAPPα AlphaLISA beads were added in 10 μL of buffer, equilibrated for 1 h, and AlphaLISA signal was measured using a Biotek H4 Synergy microplate reader (Biotek Inc). Three parameters were calculated on a per-plate basis: (a) the signal-to-background ratio (S/B); (b) the coefficient for variation [CV; CV=(standard deviation/mean)×100)] for all compound test wells; and (c) the Z′-factor [31]. Nominally active compounds from the pilot screen were determined using mean plus 3 times the standard deviation (Mean+3SD) was used as the cut-off.
In the absence of known pharmacological agents capable of inducing an increase of sAPPα release, we tested a small molecule (FIG. 2.4A insert, compound 1 in [2]) shown to decrease Aβ release. It was shown that decrease of Aβ release could be accompanied by the increase of soluble APPα, which has a neuroprotective effect. Compound 1 was tested using 20,000 cells/well in the range of 1.2-100 μM using 3-fold serial dilutions and 24 h incubation as an assay endpoint. Increase of sAPPα release was observed only in wells where 100 μM of compound 1 was added either with or without FBS (FIG. 2.4A). Viability of cells was also tested in the presence of 1.2-100 μM of compound 1 to ascertain that the increase of sAPPα release is not due to excessive cell death. Consistent with the above described results, cells were less viable in the absence of FBS. In the presence of 1.2-33 μM of compound 1, cells were approximately 10% less viable than untreated control either with or without FBS (FIG. 2.4B).
To evaluate the ability of the assay to identify compounds that increase the release of sAPPα a pilot screen was conducted using FDA approved oncology set (n=101) and TPIMS heterocycles library (n=700). The pilot screen was performed using five 384 well plates. […]

[6] = tested on: sAPPα in supernatants of 7WD10 cells; experiment: Western blot sAPPα release assay, 7WD10 cells; format: cell-based; details: 10 nM, 7WD10 supernatant
Protocol: (2). To ascertain that hits identified as a result of AlphaLISA assay are not due to artifacts of the detection system, the sAPPα levels were measured by Western blots as a secondary assay downstream of primary HTS to confirm hits or discard artifacts of the AlphaLISA assay. The assay was performed using a range of concentrations of hit compounds (10-5,000 nM). A hit compound named thiazole piperazine #244 (THPI-244) and THPI-326 induced dose-dependent increase of sAPPα in supernatants of 7WD10 cells (FIG. 1.3). […] Since compound THPI-244 increased sAPPα levels more than THPI-326, we focused on THPI-244 for further validation.
as §2, with “To detect APP-FL holoprotein and C-terminal fragments (CTFs, CT15 antibody), the cells were lysed using lysis buffer (1% NP40) with complete protease inhibitor mix (Sigma) supplemented with sodium vanadate and microcystine.” left out

TrkA = TrkA (Homo sapiens, UniProt P04629); experiment: Table of THPI-244 analogs: TrkA increase
Sequence of TrkA (P04629 33-796, species assumed): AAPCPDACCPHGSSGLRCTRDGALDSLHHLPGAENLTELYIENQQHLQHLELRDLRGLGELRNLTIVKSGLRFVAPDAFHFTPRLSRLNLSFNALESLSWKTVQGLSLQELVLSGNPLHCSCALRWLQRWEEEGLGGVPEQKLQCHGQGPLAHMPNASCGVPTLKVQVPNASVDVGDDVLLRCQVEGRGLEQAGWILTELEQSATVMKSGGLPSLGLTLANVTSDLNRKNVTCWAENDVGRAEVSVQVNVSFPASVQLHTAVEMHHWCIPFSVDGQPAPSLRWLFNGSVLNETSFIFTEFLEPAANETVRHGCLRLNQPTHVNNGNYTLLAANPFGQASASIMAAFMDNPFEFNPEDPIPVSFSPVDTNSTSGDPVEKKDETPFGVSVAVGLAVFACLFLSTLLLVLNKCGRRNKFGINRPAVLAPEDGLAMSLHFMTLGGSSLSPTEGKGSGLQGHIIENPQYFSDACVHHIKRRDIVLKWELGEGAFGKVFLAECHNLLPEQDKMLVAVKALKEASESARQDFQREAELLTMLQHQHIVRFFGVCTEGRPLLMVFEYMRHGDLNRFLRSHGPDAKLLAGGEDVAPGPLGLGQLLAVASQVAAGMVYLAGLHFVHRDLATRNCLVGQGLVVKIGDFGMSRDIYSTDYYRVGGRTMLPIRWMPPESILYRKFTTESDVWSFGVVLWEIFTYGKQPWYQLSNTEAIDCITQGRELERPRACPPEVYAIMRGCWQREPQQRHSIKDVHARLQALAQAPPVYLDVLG

human sAPPα = experiment: sAPPα release ELISA, 7WD10 cells; format: cell-based; details: 24 h
Protocol: Starting from p-methylbenzhydrylamine hydrochloride (MBHA.HCl) resin; we developed different approaches toward the diversity oriented solid-phase parallel synthesis of different aminothiazole compounds 1-6 (Scheme 1) (Micheals, H A et al., 2014, ACS Comb. Sci. 16, 1-4; Nefzi, A et al., 2010, J. Org. Chem. 75, 7939-7941). 575 thiazole compounds were synthesized and were tested for sAPPα increasing activity using CHO cells stably expressing APP751wt. For initial screenings we used a cell-based human sAPPα ELISA kit (cat #27734, IBL Co., ltd, Japan) following instructions from the manufacturer. The method involves sandwich ELISA and use of two specific antibodies and tetra methyl benzidine as a coloring agent. […]
sAPPα and Aβ40 release ELISA assay. […] The principle of the method is based on the use of tetra methyl benzidine (TMB) as a chromogen and the strength of the generated color is proportional to the quantities of human sAPPα. […] Plates were incubated with chromogen solution for 30 minutes, and read at 450 nm after adding stop solution. Levels of Aβ40 in the CM treated with different concentrations of compound 1 as detailed above were measured by sandwich ELISA exactly as described previously. Aβ40 was captured with Ab9 antibody (epitope, 1-16 of Aβ40) and detected with horseradish peroxidase-conjugated Ab13.1.1 antibody (epitope, 35-40 of Aβ40).

## CCC/C=C/C=C/C(=O)O[C@H]1/C(=C/C(=O)OC)C[C@H]2C[C@H]([C@@H](C)O)OC(=O)C[C@H](O)C[C@@H]3C[C@H](OC(C)=O)C(C)(C)[C@](O)(C[C@@H]4C/C(=C/C(=O)OC)C[C@H](/C=C/C(C)(C)[C@]1(O)O2)O4)O3 [Bryostatin, reference compound]
sAPPα [1]
  effect on sAPPα release: increased sAPPα at low nM concentrations, but then decreased levels dose-dependently
  lowest concentration with significant increase of sAPPα: 10 nM
Aβ42
  lowest concentration with significant decrease of Aβ42: 10 nM
sAPPα [2]
  lowest concentration with significant increase of sAPPα: 10 nM

## O=C(CCCCCCC(=O)Nc1ccccc1)NO [SAHA, suberoylanilide hydroxamic acid]
[3]
  change of Aβ: decrease
[4]
  change of Aβ: decrease

## CCC(C)C(=O)N1CCN(Cc2csc(NC[C@H](Cc3ccc(O)cc3)NC(=O)Cc3ccccc3)n2)CC1 (stereo partly drawn) [THPI-326]
[5]; 5 μM, 7WD10 cells, 24 h
  increase of Alpha signal (sAPPα release): ~2 fold
[6]
  increase of sAPPα over untreated control cells (Western blot): 2 fold

## Cc1cnc(C(=O)N[C@H](CNc2nc(CN3CCNCC3)cs2)c2ccccc2)cn1 [TPI-2336-55]
TrkA
  % TrkA ⬆: 69%

## c1ccc(CCNc2nc(CN3CCOCC3)cs2)cc1 [TPI-2336-99]
TrkA
  % TrkA ⬆: 51%

## c1ccc(CCNc2nc(CN3CCCCC3)cs2)cc1 [TPI-2336-100]
TrkA
  % TrkA ⬆: 54%

## O=C(NCCSCc1cccc(Cl)c1)c1c(Cl)cccc1Cl [compound 1, 2,6-dichloro-N-{2-[(3-chlorobenzyl)thio]ethyl}benzamide, reference compound]
[5]; 100 μM compound 1
  increase of AlphaLISA signal: 2 fold
[5]; range 1.2-100 μM, 24 h, with or without FBS
  concentration at which increase of sAPPα release was observed: 100 µM
Human sAPPα; 100 μM
  increase of sAPPα over untreated control cells (ELISA): 2 fold
Human sAPPα; 150 μM
  maximal increase of sAPPα (ELISA): 3 fold
